Results on twelve compounds are retold here after ChEMBL document CHEMBL5528066, “Discovery of Novel N-(Anthracen-9-ylmethyl) Benzamide Derivatives as ZNF207 Inhibitors Promising in Treating Glioma” (J Med Chem, 2024).

Assay [1] has as its system LN-229. As to the kind of experiment: Antiproliferative activity against human LN-229 cells assessed as inhibition of cell growth measured after 72 hrs by CCK-8 assay. To be noted: LN-229, 72 h. It is filed as functional, cell-based. For orientation: Formazan colour is commonly taken as a measure of viable cells.
Assay [2] deals with U-251. As to the kind of experiment: Antiproliferative activity against human U-251MG cells assessed as inhibition of cell growth measured after 72 hrs by CCK-8 assay. It is filed as functional, cell-based. To be noted: U-251, 72 h.
In assay [3] the target is BUB3-interacting and GLEBS motif-containing protein ZNF207 (Homo sapiens, UniProt O43670). Briefly: Binding affinity to human ZNF207 assessed as dissociation constant by SPR analysis.
The subject of assay [4] is Hs 683. As to the kind of experiment: Antiproliferative activity against human Hs 683 cells assessed as inhibition of cell growth measured after 72 hrs by CCK-8 assay. To be noted: Hs 683, 72 h. The class given is functional, cell-based.
The subject of assay [5] is H4. Briefly: Antiproliferative activity against human H4 cells assessed as inhibition of cell growth measured after 72 hrs by CCK-8 assay. It is filed as functional, cell-based. To be noted: H4, 72 h.
For assay [6], the system named is LN-229-Luc. Briefly: Antitumor activity against human Ln-229-Luc cells xenografted in BALB/c nude mouse assessed as increase in overall survival time at 150 mg/kg, ip administered twice a week and measured after 3 to 31 days. It is filed as functional, organism-based. To be noted: time 3-31 day. On the technique in general: Xenograft models place foreign cells or tissue in a host animal.

The subject of assay [7] is LN-229. As to the kind of experiment: Antitumor activity against human LN-229 cells xenografted in BALB/c nude mouse assessed as reduction in proportion of Ki-67 positive cells at 150 mg/kg, ip administered twice a week and measured after 49 days by immunohistochemistry analysis. It is filed as functional, organism-based. The settings on record: time 49.0 day.
Assay [8] concerns LN-229. As to the kind of experiment: Antitumor activity against human LN-229 cells xenografted in BALB/c nude mouse assessed as tumor growth inhibition at 150 mg/kg, ip administered twice a week and measured every 2 days for 49 days relative to control. The class given is functional. The settings on record: LN-229, 1176 h, time 49 day, read-out: TGI.

Calls of active or inactive are those of the source. No cut-off for these calls is given here. Bounds are passed on as bounds.

Chain of BUB3-interacting and GLEBS motif-containing protein ZNF207 (O43670 whole entry): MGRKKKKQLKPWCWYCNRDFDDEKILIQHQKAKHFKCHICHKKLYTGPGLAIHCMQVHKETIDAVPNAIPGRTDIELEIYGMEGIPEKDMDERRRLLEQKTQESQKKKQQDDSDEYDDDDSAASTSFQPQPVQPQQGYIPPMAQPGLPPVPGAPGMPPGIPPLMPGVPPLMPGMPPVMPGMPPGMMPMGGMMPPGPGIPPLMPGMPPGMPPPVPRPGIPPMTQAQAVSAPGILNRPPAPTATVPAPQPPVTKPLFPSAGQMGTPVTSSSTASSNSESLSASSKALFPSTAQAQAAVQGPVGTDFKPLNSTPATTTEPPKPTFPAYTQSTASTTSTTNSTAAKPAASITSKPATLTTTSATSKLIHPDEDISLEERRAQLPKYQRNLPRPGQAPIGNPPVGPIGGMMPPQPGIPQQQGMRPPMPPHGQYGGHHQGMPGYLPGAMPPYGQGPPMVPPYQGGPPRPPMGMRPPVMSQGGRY

The IC50 is the concentration needed to halve the response being measured. The Kd is the free concentration of one partner at which half of the binding sites on the other are occupied at equilibrium, for simple one-to-one binding. With `N#CC1(C(=O)Nc2ccc([N+](=O)[O-])cc2)CC2c3ccccc3C1c1ccccc12` (racemic), the IC50 in assay [1] turned out to be 19.4 µM; in assay [2], 13.5 µM; in assay [4], 26.4 µM; in assay [5] it was 25.3 µM. Further, in assay [3], the Kd amounted to 2.4 µM.

With `Cn1nnc2c(C(N)=O)ncn2c1=O` [TEMOZOLOMIDE], the IC50 in assay [1] worked out at 54.1 µM; in assay [2], 43.5 µM; in assay [4] it was 47.2 µM; in assay [5], 47.9 µM. Moreover, the result in assay [6] and in assay [7] was Active. Further, in assay [8], the inhibition in vivo at 150 mg/kg is 69.6%.

As to `N#CC1(C(=O)NCCCc2ccc(Br)cc2)CC2(Br)c3ccccc3C1c1ccccc12` (racemic), the IC50 in assay [1] is 24.6 µM; in assay [2], 37.7 µM; in assay [4], 47.3 µM; in assay [5], 53.1 µM.

As for `N#CC1(C(=O)NCCc2ccc(Cl)cc2)CC2(Br)c3ccccc3C1c1ccccc12` (racemic), the IC50 in assay [1] came out at 7.85 µM; in assay [2], 24 µM; in assay [4], 23.1 µM; in assay [5], 25 µM.

As to `N#CC1(C(=O)NCCc2ccc(F)cc2)CC2(CCl)c3ccccc3C1c1ccccc12` (racemic), the IC50 is 60.2 µM in assay [1], 34.9 µM in assay [2], 52.8 µM in assay [4] and 32.6 µM in assay [5].

Regarding `N#CC1(C(=O)NCCc2ccc(F)cc2)CC2(Br)c3ccccc3C1(Br)c1ccccc12` (racemic), the IC50 in assay [1] is more than 80 µM; in assay [2], more than 80 µM; in assay [4], more than 80 µM; in assay [5], 54 µM.

Regarding `N#CC1(C(=O)NCC2CCN(Cc3ccc(F)cc3)CC2)CC2(Br)c3ccccc3C1c1ccccc12` (racemic), the IC50 in assay [1], in assay [2], in assay [4] and in assay [5] was more than 80 µM each time.

Take `N#CC1(C(=O)NCc2ccccc2)CC2c3ccccc3C1c1ccccc12` (racemic): the IC50 in assay [1], in assay [2], in assay [4] and in assay [5] was more than 80 µM in each case.

With `O=C(NCCc1ccc(F)cc1)C1(Cl)CC2(Br)c3ccccc3C1c1ccccc12` (racemic), the IC50 in assay [1], in assay [2], in assay [4] and in assay [5] was more than 80 µM in each case.

`N#CC1(C(=O)NCCS(=O)(=O)c2ccc(Cl)cc2)CC2(Br)c3ccccc3C1c1ccccc12` (racemic): the IC50 was determined as 9.14 µM in assay [1], 23.5 µM in assay [2], 10.4 µM in assay [4] and 15.3 µM in assay [5].

In the case of `N#CC1(C(=O)NCCC2CCN(Cc3ccccc3)CC2)CC2c3ccccc3C1c1ccccc12` (racemic), the IC50 in assay [1] came to 11.6 µM; in assay [2], 35.9 µM; in assay [4], 19.1 µM; in assay [5], 26.6 µM.

With `COc1cc(NC(=O)C2(C#N)CC3c4ccccc4C2c2ccccc23)cc(OC)c1` (racemic), the IC50 in assay [1], in assay [2], in assay [4] and in assay [5] was more than 80 µM in each case.
